Consider four molecules from ChEMBL document CHEMBL5113413, “New peptidomimetic rhodesain inhibitors with improved selectivity towards human cathepsins” (Eur J Med Chem, 2022).

The inhibition is the drop in the measured response relative to a control, in per cent. In general, CC50 refers to the concentration at which the toxic effect on the cells reaches its halfway point. A word on the EC50: it is the midpoint of the concentration-response curve.

Active and inactive are the calls of the source. No cut-off for these calls is given here.

Data set [1] has as its target Rhodesain (Trypanosoma brucei rhodesiense) (UniProt Q95PM0). As to the kind of experiment: Inhibition of Trypanosoma brucei rhodesiense rhodesain at 20 uM using Cbz-Phe-Arg-AMC as fluorogenic substrate by fluorometric assay.
A further data set concerns the target Rhodesain (Trypanosoma brucei rhodesiense, UniProt Q95PM0). As to the kind of experiment: Irreversible inhibition of Trypanosoma brucei rhodesiense rhodesain assessed as inhibition constant using Cbz-Phe-Arg-AMC as fluorogenic substrate by fluorometric assay.
In data set [2] the target is T1, 20S proteasome (Homo sapiens) (UniProt P49721+P20618+P28074+P28062+P28065+P28072+P25786+P25787+P25788+P25789+P28066+P60900+O14818+Q8TAA3+P40306+A5LHX3+P49720+P28070+Q99436). As to the kind of experiment: Inhibition of human 20S proteasome caspase-like activity at 11 uM using Cbz-Leu-Leu-Glu-AMC as fluorogenic substrate by fluorometric assay. The format is protein-complex assay.

Data set [3] deals with T2, Cathepsin B (Homo sapiens, UniProt P07858). As to the kind of experiment: Inhibition of human Cathepsin B at 20 uM using Cbz-Phe-Arg-AMC as fluorogenic substrate by fluorometric assay.
For data set [4], the target named is T3, Procathepsin L (Homo sapiens, UniProt P07711). As to the kind of experiment: Inhibition of human Cathepsin L at 20 uM using Cbz-Phe-Arg-AMC as fluorogenic substrate by fluorometric assay.
Target sequence in this assay (P07711 114-333 limits assumed): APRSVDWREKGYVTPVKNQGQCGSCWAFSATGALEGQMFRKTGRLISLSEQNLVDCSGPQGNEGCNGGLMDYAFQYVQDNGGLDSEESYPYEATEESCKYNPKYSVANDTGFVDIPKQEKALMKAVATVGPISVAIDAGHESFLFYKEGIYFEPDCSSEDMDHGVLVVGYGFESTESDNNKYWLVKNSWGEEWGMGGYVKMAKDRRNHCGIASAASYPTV
The target in data set [5] is Rhodesain (Trypanosoma brucei rhodesiense) (UniProt Q95PM0). As to the kind of experiment: Reversible inhibition of Trypanosoma brucei rhodesiense rhodesain assessed as recovery of enzyme activity preincubated for 30 mins followed by substrate addition using Cbz-Phe-Arg-AMC as fluorogenic substrate by fluorometric 100-fold dilution assay.
Sequence of Rhodesain (Trypanosoma brucei rhodesiense) (Q95PM0 1-450): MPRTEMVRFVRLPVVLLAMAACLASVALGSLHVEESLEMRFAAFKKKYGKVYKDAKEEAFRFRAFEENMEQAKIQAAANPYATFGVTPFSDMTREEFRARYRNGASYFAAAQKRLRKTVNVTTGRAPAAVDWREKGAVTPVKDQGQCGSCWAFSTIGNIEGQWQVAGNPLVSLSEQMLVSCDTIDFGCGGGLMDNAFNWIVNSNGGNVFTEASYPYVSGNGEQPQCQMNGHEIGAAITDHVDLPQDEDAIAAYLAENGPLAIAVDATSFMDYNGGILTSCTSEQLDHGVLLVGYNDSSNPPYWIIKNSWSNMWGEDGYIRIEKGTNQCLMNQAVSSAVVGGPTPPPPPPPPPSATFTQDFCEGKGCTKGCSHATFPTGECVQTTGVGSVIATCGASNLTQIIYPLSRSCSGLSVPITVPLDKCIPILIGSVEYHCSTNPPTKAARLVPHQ
For data set [6], the target named is T1, 20S proteasome (Homo sapiens). As to the kind of experiment: Inhibition of human 20S proteasome trypsin-like activity at 11 uM using Boc-Leu-Arg-Arg-AMC as fluorogenic substrate by fluorometric assay. The class given is protein-complex assay.
The target of data set [7] is Rhodesain (Trypanosoma brucei rhodesiense) (UniProt Q95PM0). As to the kind of experiment: Irreversible inhibition of Trypanosoma brucei rhodesiense rhodesain assessed as no recovery of enzyme activity preincubated for 30 mins followed by substrate addition using Cbz-Phe-Arg-AMC as fluorogenic substrate by fluorometric 100-fold dilution assay.
Data set [8] in a line: Cytotoxicity against mouse J774.1 cells assessed as reduction in cell viability incubated for 48 hrs by MTT assay. The class given is toxicity, cell-based. (In general: Formazan colour is commonly taken as a measure of viable cells.)
In data set [9] the test system is Trypanosoma brucei brucei. As to the kind of experiment: Antitrypanosomal activity against Trypanosoma brucei brucei BS449 assessed as luminescence incubated for 48 hrs by ATPlite assay. The format is functional, organism-based. As to conditions: BS449, 48 h. In general terms: ATP-based viability assays read luminescence as a measure of living cells.
In data set [10] the target is T2, Cathepsin B. As to the kind of experiment: Irreversible inhibition of human Cathepsin B assessed as inhibition constant using Cbz-Phe-Arg-AMC as fluorogenic substrate by fluorometric assay.
In data set [11] the target is T1, 20S proteasome (Homo sapiens). As to the kind of experiment: Inhibition of human 20S proteasome chymotrypsin-like activity at 11 uM using Succ-Leu-Leu-Val-Tyr-AMC as fluorogenic substrate by fluorometric assay. The format is protein-complex assay.
Data set [12] addresses T3, Procathepsin L. As to the kind of experiment: Irreversible inhibition of human Cathepsin L assessed as inhibition constant using Cbz-Phe-Arg-AMC as fluorogenic substrate by fluorometric assay.
Target sequence in this assay (P07711 whole entry): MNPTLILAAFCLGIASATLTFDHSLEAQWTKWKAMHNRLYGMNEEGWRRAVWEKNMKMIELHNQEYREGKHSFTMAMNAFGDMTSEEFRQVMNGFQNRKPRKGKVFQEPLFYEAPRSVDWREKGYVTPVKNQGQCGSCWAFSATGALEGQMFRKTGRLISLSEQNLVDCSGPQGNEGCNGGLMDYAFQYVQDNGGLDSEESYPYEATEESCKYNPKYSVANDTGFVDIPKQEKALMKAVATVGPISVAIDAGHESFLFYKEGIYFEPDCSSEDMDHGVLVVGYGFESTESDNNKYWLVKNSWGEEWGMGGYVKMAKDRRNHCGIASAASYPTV

Sequence of Rhodesain (Q95PM0 whole entry): as the sequence (Q95PM0 1-450) above

In the case of `CN1CCN(C(=O)NCc2ccccc2C(=O)N[C@H](/C=C(\F)S(=O)(=O)c2ccccc2)CCc2ccccc2)CC1`, the inhibition in [1] was determined as 18%.
As for `O=C(NCc1ccccc1C(=O)N[C@H](/C=C(\F)S(=O)(=O)c1ccccc1)CCc1ccccc1)c1ccc2c(c1)OCCO2`, at Rhodesain, the Ki was determined as 339 nM. Moreover, the inhibition in [2] is 34%; on Cathepsin B [3] it was less than 10%; on Procathepsin L [4], 31%; in data set [6] it was 14%. For the same molecule, the inhibition result in [5] and in [7] was “Active” each time.
As for `O=C(NCc1ccccc1C(=O)N[C@H](/C=C(\F)S(=O)(=O)Oc1ccccc1)CCc1ccccc1)c1ccc2c(c1)OCCO2`, in [8], the 50% cytotoxic concentration (CC50) at 48 h was greater than 100 µM. Further, the EC50 in data set [9] came to 3 µM. In addition, the Ki on Rhodesain came to 379 nM. Moreover, the values for the inhibition against Cathepsin B [3] and at Procathepsin L [4] were less than 10% and 23%, respectively. Also, the inhibition entry in data set [5] and in data set [7] was “Active” in each case.
For `O=C(NCc1ccccc1C(=O)N[C@H](/C=C/S(=O)(=O)c1ccccc1)CCc1ccccc1)c1ccccc1`, the Ki was 1980 nM on Cathepsin B [10], 100 nM at Rhodesain and 1490 nM on Procathepsin L [12]. Besides, in [8], the CC50 at 48 h was greater than 100 µM. Further, in data set [9], the EC50 is 3.6 µM. Also, the inhibition in data set [2] stood at 39%; in data set [11] it was 14%; in data set [6], 23%.
